Measurements taken from patent US20200278343A1, “DIRECT VISUALIZATION OF INTEGRATED STRESS RESPONSE ACTIVITY” (priority 2019, published 2020).

Columns and labels:
PERK = assay: Western blot for PERK activation in stably transduced ARPE-19 cells; format: cell-based; details: 200 nM Tg, 4 h
IRE1 [1] = assay: Western blot for phospho-IRE1 (Ser724) in fibroblasts; format: cell-based, human; details: Tg-treated fibroblast lysates vs mock-treated, noninfected cells
[2] = tested on: Integrated Stress Response; assay: UL148-GFP visual probe for ISR inhibition in living cells; format: cell-based; details: ARPE-19 cells, UL148-GFP induced 18 hours with 100 ng/mL doxycycline hyclate; 200 nM ISRIB in FIG. 2B
Excerpt: The disclosed technology is based on UL148, a viral endoplasmic reticulum (ER)-resident protein, which influences the expression of a viral glycoprotein complex required for cell entry. UL148 activates the Unfolded Protein Response (UPR), resulting in stress-regulated translation of ISR mRNAs such as ATF4. ISR/UPR activation by UL148 causes the formation of large membranous structures from the ER, at which UL148 itself accumulates. […] Other fluorescent proteins may include Allophycocyanin, Brainbow, Cameleon, FMN-binding fluorescent protein, Glutamate-sensitive fluorescent reporter, MCherry, Phycoerythrin, Red fluorescent protein, RoGFP, SmURFP, Synapto-pHluorin, and Yellow fluorescent protein. […] Instead, treatment with an ISR-inhibitor (e.g., ISRIB) causes UL148-GFP to be evenly distributed across the ER such that the GFP staining is uniform and reticular. Therefore, the simple task of determining whether GFP signal is present and whether it is uniform or punctate provides a facile read-out that can be automated to enable high throughput screening for novel small molecule inhibitors that inhibit the ISR.
ARPE-19 epithelial cells carrying a doxycycline inducible gene expression cassette encoding UL148-GFP were treated for 18 hours with 100 ng/mL doxycycline hyclate to induce UL148-GFP expression. In panel A, (FIG. 2A) UL148-GFP was induced in the absence of ISRIB. […]

IRE1 [3] = assay: Xbp-1 splicing assay (RT-PCR) in HEK-293T cells; format: cell-based, human; details: 1 mM DTT, 2 h
[4] = tested on: protein synthesis (mRNA translation) in ARPE-19 cells; assay: Metabolic labeling (35S Met/Cys incorporation) in i148HA and i159HA ARPE-19 cells; format: cell-based; details: 24 h Dox induction, 30 min 35S Met/Cys pulse, phosphorimager analysis
Experimental: Having isolated stably transduced ARPE-19 cell populations, the inventors confirmed that that anti-HA immunoreactive polypeptides of the expected size for UL148 (i148^HA) or Rh159 (i159^HA) were induced upon treatment with 100 ng/ml doxycycline (Dox). Furthermore, expression of neither protein caused any overt reduction in cell viability or number, as measured by trypan blue exclusion following 24 h of Dox induction. The inventors therefore concluded that the i148^HA and i159^HA ARPE-19 cells were suitable to address whether UL148 might affect rates of mRNA translation in metabolic labeling studies. For these experiments, i148^HA and i159^HA cells were induced (or mock induced) for transgene expression for 24 h and then incubated in the presence of ^35S-labeled methionine and cysteine for 30 min. In parallel, labeling was also carried out using i159^HA cells that were incubated in the presence of either thapsigargin (Tg) or carrier alone, so as to provide positive and negative controls, respectively, for UPR induction.
Metabolic labeling. i159^HA or i148^HA cells were seeded at 2×10^5 cells per well in a 24-well cluster plate in Gibco Opti-MEM reduced serum medium (Thermo Fisher) supplemented with 2.5% tetracycline (Tet)-free FBS (Clontech 631101). […] The relative signal per lane was calculated using Bio-Rad 1-D analysis software by reading the signal volume (counts·mm^2) in each lane. […]

C/C=C(/C)C(=O)O[C@H]1C(C)=C2[C@H]([C@@H]1OC(=O)CCCCCCC)[C@@](C)(OC(C)=O)C[C@H](OC(=O)CCC)[C@@]1(O)[C@H]2OC(=O)[C@@]1(C)O [Tg, thapsigargin]
decreased mobility of the anti-PERK immunoreactive band (PERK autophosphorylation) (PERK): readily observed
phospho-IRE1 signal (IRE1 [1]): robust phospho-IRE1 signal

O=C(COc1ccc(Cl)cc1)NC1CCC(NC(=O)COc2ccc(Cl)cc2)CC1 (centres unmarked) [ISRIB]
formation of UL148 structures [2]: completely blocks the formation of UL148 structures

O[C@H](CS)[C@H](O)CS (racemic) [DTT, dithiothreitol]
splicing of the 26-nt intron from Xbp-1 mRNA (IRE1 [3]): spliced from nearly all the Xbp-1 mRNA

B1: UL148: viral ER-resident glycoprotein from human cytomegalovirus, ectopically expressed with a C-terminal HA tag (protein, UniProt F5H8Q3 21-316, looked up)
Membrane protein UL148: SRDYVHVRLLSYRGDPLVFKHTFSGVRRPFTELGWAACRDWDSMHCTPFWSTDLEQMTDSVRRYSTVSPGKEVTLQLHGNQTVQPSFLSFTCRLQLEPVVENVGLYVAYVVNDGERPQQFFTPQVDVVRFALYLETLSRIVEPLESGRLTVEFDTPDLALAPDLVSSLFVAGHGETDFYMNWTLRRSQTHYLEEMALQVEILKPRGVRHRAIIHHPKLQPGVGLWIDFCVYRYNARLTRGYVRYTLSPKARLPAKAEGWLVSLDRFIVQYLNTLLITMMAAIWARVLITYLVSRRR
modifications: C-terminal HA tag
decrease in protein synthesis compared to carrier-alone control [4]: ~50%
